The source of these data is patent US8299126B2, “Treatment of canine hemangiosarcoma with a histone deacetylase inhibitor” (priority 2003, dated 2012).

Values joined by “and” are separate entries in the source; they are usually repeats but may differ in a detail not shown here. Equal values may be shown once. Read-outs that look alike come from different tables or passages of the source.

One data set relates to hemangiosarcoma. The settings on record: canines, surgery and chemotherapy with doxorubicin; cited from earlier work.
The next data set deals with canine hemangiosarcoma. The format is in vivo. How it is done:
The present invention is based in part on a case study of a dog having hemangiosarcoma. In the case study, SAHA was administered to the dog at a dose of 100 mg per day (about 3.3 mg/kg/day) post-splenectomy, mixed as a dry powder in dog food. The dog remains in good health more than 400 days post-splenectomy.
A 75 pound (33.75 kg), 12 year old female Rhodesian Ridgeback-Pit Bull mix was diagnosed with hemangiosarcoma. Symptoms included unexplained weakness, pale color to the mucous membranes of the mouth, lack of appetite and excessive consumption of water. The dog was brought to an emergency veterinary center, where X-ray and sonogram examination indicated a multi-lobulated mass on the spleen. An emergency splenectomy was performed, during which approximately 1 liter of blood was aspirated from the body cavity. There was no gross evidence of metastases in the liver or heart and a liver biopsy was taken. […] Nuclei were mildly pleomorphic, oval and had prominent nucleoli. Mitoses were occasionally present. Extramedullary hematopoiesis was present throughout and large areas of hemorrhage and necrosis was typical. The tumor was multifocal throughout the spleen. Pathology results were reported as hemangiosarcoma, grade 1, spleen, with a normal liver.
Starting approximately 2 weeks after splenectomy, when signs of weakness had re-appeared, SAHA was administered in the diet at 100 mg/day, 7 days/week. The dose was based on a rough extrapolation from rat studies. The diet consisted of a cup of standard pelleted dog food (Solid Gold, Hund-n-Flocken), a teaspoonful of brewers yeast (Foster and Smith, Rhinelander, Wis.), 1-2 ml of an essential fatty acid mixture containing n-6 and n-3 PUFA (Foster and Smith), and 2 tablespoonfuls of wet dog food (Pedigree®, Kal Kan Foods, Inc., CA), in which the SAHA was administered.
Within 24 hrs, there was an immediate, observable decrease in weakness and lethargy. […] For three months from diagnosis, the dog went through periods of high alertness and activity punctuated by brief periods of mild lethargy.
(§1) A little over 7 months post-splenectomy, the dog was examined for possible signs of metastasis by chest X-Ray, abdominal ultrasound, echogram, urinalysis and CBC.

The test system of data set [1] is human prostate cancer cells. The settings on record: mouse xenograft model (Butler et al. 2000); cited from earlier work.
Data set [2] can be described thus: Analyzed urine output: removal, half-life and metabolism of SAHA. The format is in vivo. The source says:
(§2) Therefore, it may be possible with further studies to better understand the effect of SAHA on the vascularization of tumors, not only in canines, but perhaps in humans as well.

Data set [3] is described as follows: Stability at room temperature and solubility of the active compound. Format: physicochemical.
From the text: Suitable preparations of such compositions include emulsions or solid forms suitable for emulsion. As used herein “solid forms” include powders and finely divided particles. Due to the insoluble nature of the active compound, e.g., SAHA, the preferred preparation is in the form of a powder.
as §2

The test system of data set [4] is NMU-induced rat mammary tumors. As to conditions: cited from earlier work.
A short description of data set [5]: Follow-up blood chemistry and hematology of the SAHA-treated dog. Format: in vivo, canine.
From the text: Approximately one month post-splenectomy, the dog was examined and found to be in good condition. […] The platelet count was above the normal range 550, (reference range, 100-450).
as §1

A short description of a further data set: General toxicity of SAHA. An excerpt: The daily dosage of the compound of the present invention may vary according to a variety of factors such as underlying disease states, the individual's type, species, and medical condition, weight, sex, age, the severity of the condition to be treated; the route of administration; and the particular compound thereof employed. […] A physician or veterinarian of ordinary skill can readily determine and prescribe the effective amount of the drug required to prevent, counter or arrest the progress of the condition. Optimal precision in achieving concentrations of drug within the range that yields efficacy without toxicity requires a regimen based on the kinetics of the drug's availability to target sites. This involves consideration of the absorption, distribution, metabolism, and excretion of a drug, which are readily quantified.

Setting [6] is: added to the diet, chemopreventive (Cohen et al., 1999).

Take `COc1cccc2c1C(=O)c1c(O)c3c(c(O)c1C2=O)C[C@@](O)(C(=O)CO)C[C@@H]3O[C@H]1C[C@H](N)[C@H](O)[C@H](C)O1` [doxorubicin]: in the data set on hemangiosarcoma, the prognosis once diagnosed entry is “less than six”.

`O=C(CCCCCCC(=O)Nc1ccccc1)NO` [SAHA, suberoylanilide hydroxamic acid]: the “signs of decreased energy after dose increase” value in the data set on canine hemangiosarcoma (SAHA increased to 110 mg/day) was “no signs of decreased energy”. Further, the “signs of metastasis by chest X-Ray, abdominal ultrasound, echogram, urinalysis and CBC” value in the data set on canine hemangiosarcoma (a little over 7 months post-splenectomy) is listed as “no evidence of dissemination”. Also, in the data set on canine hemangiosarcoma (after start of SAHA 100 mg/day in the diet, about 2 weeks after splenectomy), the “time to observable decrease in weakness and lethargy” value is at most 24 h. Also, in the data set on canine hemangiosarcoma (one dog with hemangiosarcoma, SAHA 100 mg per day (about 3.3 mg/kg/day), later 110 mg/day, in dog food), the “time the dog remains in good health post-splenectomy” value was “more than 400 days and 400 days”. Besides, the “duration of suppression of metastatic dissemination of neoplastic endothelial cells post-splenectomy” value in the data set with canine hemangiosarcoma (one dog, SAHA daily in diet) was determined as 210 days. Also, the tumor growth entry in data set [1] is recorded as “inhibited tumor growth”. Moreover, in data set [2] (from analyzed urine output), the half-life result is on record as “approximately three to four” and the “removal from the body” value is “rapidly removed from the body”. Besides, in data set [2] (in vivo), the “metabolism by the animal” value was “not readily metabolized”. The solubility entry in data set [3] is recorded as “insoluble”. In addition, in data set [3] (room temperature), the “stability at room temperature” value is listed as “stable at room temperature”. In data set [4] (setting [6]), the “effect on time of appearance, incidence, multiplicity and total number of NMU-induced rat mammary tumors” value is on record as “significantly inhibit”; the side effects result is listed as “no deleterious side effects”. In addition, the “effect on established rat mammary tumors” value in data set [4] (administered in the diet, chemotherapeutic (Cohen et al., 2002)) is “decrease the size, slow the growth rate and, in some cases, induce the complete regression”. Further, the side effects entry in data set [4] (administered in the diet, established tumors (Cohen et al., 2002)) is listed as “no toxic side effects”. This molecule came in with a bands neutrophils in data set [5] (a little over 7 months post-splenectomy, range 0-3) of 6. Moreover, in data set [5] (a little over 7 months post-splenectomy, range 5.5-8.5), the RBC was 4.98 10^6/µL. Moreover, the segmented neutrophil in data set [5] (a little over 7 months post-splenectomy, range 32-36) is recorded as 36.5. Moreover, the Hematocrit in data set [5] (a little over 7 months post-splenectomy, range 37-55) was determined as 35.3%. The molecule further registered an alkaline phosphatase in data set [5] (a little over 7 months post-splenectomy, reference range 10-150) of 3 U/L. The RBC in data set [5] (approximately one month post-splenectomy, range 5-8) is 4.96 10^6/µL. The hemoglobin in data set [5] (approximately one month post-splenectomy, range 14-21) is 13.2 g/dL. In addition, the LDH in data set [5] (approximately one month post-splenectomy, reference range 50-550) worked out at 49 U/L. Also, the platelet count in data set [5] (approximately one month post-splenectomy, reference range 100-450) was 550 10^3/µL. Besides, the toxicity entry in “General toxicity of SAHA” is listed as “almost no measurable toxicity other than possible fatigue at high doses”.
